# Source: US20190233825A1, “METHODS OF MODULATING CYTOSOLIC DNA SURVEILLANCE MOLECULES” (BAYER ANIMAL HEALTH GMBH, priority 2015, published 2019)
# B1: IFN-α1: human interferon α1, positive control, global activator of different IRF pathways (protein, UniProt P01562 24-189, looked up)
# Interferon alpha-1/13: CDLPETHSLDNRRTLMLLAQMSRISPSSCLMDRHDFGFPQEEFDGNQFQKAPAISVLHELIQQIFNLFTTKDSSAAWDEDLLDKFCTELYQQLNDLEACVMQEERVGETPLMNADSILAVKKYFRRITLYLTEKKYSPCAWEVVRAEIMRSLSLSTNLQERLRRKE
# Columns and labels:
# I-ISG54 promoter = assay: SEAP reporter assay in B16-Blue ISG cells; format: cell-based, murine
# Excerpt: B16-Blue™ ISG cells were derived from the murine B16 F1 melanoma cell line. They express the secreted embryonic alkaline phosphatase (SEAP) reporter gene under the control of the I-ISG54 promoter which is comprised of the IFN-inducible ISG54 promoter enhanced by a multimeric ISRE. Stimulation of B16-Blue™ ISG cells with IFNs, cyclic dinucleotides, such as cGAMP, or type I IFN inducers, such as transfected poly(dA:dT), triggers the activation of the I-ISG54 promoter and the production of SEAP.
# STING = assay: SEAP reporter assay in B16-Blue ISG-KO-STING cells; format: cell-based, murine
# Excerpt: B16-Blue™ ISG-KO-STING cells were generated from the B16-Blue™ ISG cell line, a murine B16-F1 melanoma-derived cell line, through stable knockout of the STING gene. They express the secreted embryonic alkaline phosphatase (SEAP) reporter gene under the control of the I-ISG54 promoter which is comprised of the IFN-inducible ISG54 promoter enhanced by a multimeric ISRE. […] Stimulation of these cells with IFN triggers the activation of the I-ISG54 promoter and the production of SEAP.
# Referring to FIG. 26, known STING pathways activators, Herpes simplex virus DNA complexed with LyoVec (HSV-LyoVec) and the cyclic dinucleotide 2′,3′-cGAMP were used to validate cell line properties.
# BRD [1] = assay: BRD treatment study in heifers: Baytril 100, Seq No 2-F, combination; format: in vivo, cattle; conditions: observed until day 60 post-diagnosis
# BRD [2] = assay: BRD treatment study in beef calves: Draxxin, Seq No 2-F, combination; format: in vivo, cattle; conditions: 56 days after diagnosis
# Experimental: The purpose of this study was to compare the effectiveness of Draxxin®, Draxxin® and Seq No 2-F, or Seq No 2-F alone in cattle diagnosed with BRD.
# The first group was administered 1.1 ml/cwt of Draxxin® subcutaneously at the time of diagnosis. […] A 3 day moratorium followed treatment, and the study concluded 56 days after the diagnosis.
# BRD [3] = assay: Metaphylaxis study in feedlot calves at medium risk of BRD versus Micotil; conditions: calves observed for 56 days
# Experimental: Weaned beef calves with an average weight of 590 lbs and determined to be at medium risk for BRD were selected for this study.
# Morbidity, mortality, average daily gain (ADG), dry matter intake (DMI), and feed to weight gain ratio were measured and compared between the study groups.
# [4] = test system: interferon regulatory factor 3 (IRF-3); assay: IRF-inducible SEAP reporter assay in THP1-Blue ISG (IRF-THP-1) cells
# Excerpt: A human macrophage-like (monocyte) cell line (THP-1), derived from an acute monocytic leukemia patient, is used as a model system for monocyte function. THP1-Blue ISG cells (Invitrogen) were generated by stable integration of an interferon regulatory factor (IRF)-inducible secretory alkaline phosphatase (SEAP) reporter construct (IRF-THP1 cells). The THP-1 cells endogenously contain functional STING (Simulator of interferon genes) pathway molecules, as well as cytosolic DNA recognition receptors. STING receives signals from and is itself a cytosolic DNA surveillance molecule that acts through IRF-3. Activation of STING leads to SEAP production, which is then detectable in the culture supernatant. Thus, activation of the IRF-3 reporter SEAP construct correlates to activation of the STING pathway.
# The stably transfected IRF-THP-1 cell line was tested for its functionality by IFN-α1, which is a global activator of different IRF pathways. IRF-THP-1 cells were contacted with human interferon α1 (IFN α1) as a positive control for IRF-3 activation. […] FIG. 4 graphically illustrates IFN α1 activation of IRF-3.
molecule,measurement,setting,value
"Nc1nc2c(ncn2[C@@H]2O[C@@H]3COP(=O)(O)O[C@H]4[C@@H](O)[C@H](n5cnc6c(N)ncnc65)O[C@@H]4COP(=O)(O)O[C@@H]2[C@@H]3O)c(=O)[nH]1 [2′,3′-cGAMP]",signal (interferon-response element readout),"I-ISG54 promoter; parental B16-Blue ISG cell line, FIG. 26",significant signals
same,signal (interferon-response element readout),STING,completely abrogated
"Nc1nc2c(ncn2[C@@H]2O[C@@H]3COP(=O)(O)O[C@H]4[C@@H](O)[C@H](n5cnc6c(N)ncnc65)O[C@@H]4COP(=O)(O)O[C@H]3[C@H]2O)c(=O)[nH]1 [3′,3′-cGAMP]",SEAP signal,"I-ISG54 promoter; controls, FIG. 21",expected specific signals
"CCN1CCN(c2cc3c(cc2F)c(=O)c(C(=O)O)cn3C2CC2)CC1 [Baytril 100, enrofloxacin]",ADG (deads out),BRD [1],1.8 lbs/day
same,Avg wt gain (deads in),BRD [1],24.3 lbs
same,Avg wt gain (deads out),BRD [1],87.00 lbs
same,BRD Chronicity,BRD [1],22.10%
same,BRD case-fatality,BRD [1],10.0%
same,BRD repulls,BRD [1],44.8%
"CCCNC[C@]1(O)[C@H](C)O[C@@H](O[C@H]2[C@H](C)[C@@H](O[C@@H]3O[C@H](C)C[C@H](N(C)C)[C@H]3O)[C@](C)(O)C[C@@H](C)CN[C@H](C)[C@@H](O)[C@](C)(O)[C@@H](CC)OC(=O)[C@@H]2C)C[C@@]1(C)OC [Draxxin, tulathromycin]",ADG (deads in),BRD [2],3.2 lbs/day
same,ADG (deads out),BRD [2],3.3 lbs/day
same,Avg wt gain (deads in),BRD [2],181.1 lbs
same,Avg wt gain (deads out),BRD [2],187.0 lbs
same,BRD Chronicity,BRD [2],4.0%
same,BRD case-fatality,BRD [2],1.3%
same,BRD morbidity,BRD [2],29.2%
same,BRD repulls,BRD [2],37.2%
same,Time to BRD Dx,BRD [2],18.8 days
CC[C@H]1OC(=O)C[C@@H](O)[C@H](C)[C@@H](O[C@@H]2O[C@H](C)[C@@H](O)[C@H](N(C)C)[C@H]2O)[C@@H](CCN2C[C@H](C)C[C@H](C)C2)C[C@@H](C)C(=O)/C=C/C(C)=C/[C@@H]1CO[C@@H]1O[C@H](C)[C@@H](O)[C@@H](OC)[C@H]1OC [Micotil],ADG,BRD [3],2.96
same,BRD Chronicity,BRD [3],27.90%
same,BRD case-fatality,BRD [3],3.95%
same,BRD repulls,BRD [3],17.9%
same,DMI,BRD [3],12.96
same,Feed: Gain,BRD [3],4.50
same,Overall BRD Mortality,BRD [3],0.44%
same,Time to BRD Dx,BRD [3],28.1
B1,SEAP signal,"I-ISG54 promoter; IFN-α1 dosing, FIG. 20",clear dose-response relationship
same,"SEAP signal, dose-response curve","[4]; 1.5625-50 μg/ml, FIG. 11",dose-dependent response
same,SEAP signal,"[4]; IFN-α1 dosing, FIG. 4",clear dose-response relationship
